The source of these data is paper PMC6345558 (European journal of medicinal chemistry, 2018).

SMILES strings stand for the structures.

For data set [1], the system named is MCF7 cancer cells. Nature of the data set: MTT cytotoxicity, MCF7 breast cancer cells. The class given is cell-based, human. The note with it: for IC50: read-out: IC50 MCF7, MTT assay, 24 h incubation. (Formazan colour is commonly taken as a measure of viable cells.)
Data set [2] concerns MDA-MB-231 cancer cells. In words: MTT cytotoxicity, MDA-MB-231 breast cancer cells. The note with it: read-out: IC50 MDA-MB-231; MTT assay, 24 h incubation. The class given is cell-based, human.
Data set [3] concerns NIH3T3 cells. In words: MTT growth inhibition, NIH3T3 control cells. In kind it is cell-based. Particulars: read-out: Half inhibitory growth concentration, IG50, NIH3T3, empty plasmid control, 48 h incubation at 37 °C.
Data set [4] has as its target MRP1 (Homo sapiens, UniProt P33527). Nature of the data set: Flow cytometry, inhibition of calcein AM efflux by MRP1. The class given is cell-based. Particulars: compound 20 µM, 0.2 µM calcein AM, transfected cells.
Data set [5] concerns the target MRP2 (Homo sapiens, UniProt Q92887). Nature of the data set: Flow cytometry, inhibition of calcein AM efflux by MRP2. In kind it is cell-based. Particulars: compound 20 µM, 0.2 µM calcein AM, transfected cells.
Data set [6] relates to NIH3T3 cells overexpressing P-gp. Nature of the data set: MTT growth inhibition, NIH3T3 cells overexpressing P-gp.
Data set [7] deals with HEK293 cells overexpressing MRP1. Nature of the data set: MTT growth inhibition, HEK293 cells overexpressing MRP1. The note with it: HEK293/MRP1 vs HEK293.
Data set [8] concerns HEK293 cells overexpressing BCRP. Nature of the data set: MTT growth inhibition, HEK293 cells overexpressing BCRP. The note with it: HEK293/BCRP vs HEK293.
The target in data set [9] is T1, BCRP (ABCG2) (Homo sapiens, UniProt Q9UNQ0).
T1 sequence (Q9UNQ0 1-655): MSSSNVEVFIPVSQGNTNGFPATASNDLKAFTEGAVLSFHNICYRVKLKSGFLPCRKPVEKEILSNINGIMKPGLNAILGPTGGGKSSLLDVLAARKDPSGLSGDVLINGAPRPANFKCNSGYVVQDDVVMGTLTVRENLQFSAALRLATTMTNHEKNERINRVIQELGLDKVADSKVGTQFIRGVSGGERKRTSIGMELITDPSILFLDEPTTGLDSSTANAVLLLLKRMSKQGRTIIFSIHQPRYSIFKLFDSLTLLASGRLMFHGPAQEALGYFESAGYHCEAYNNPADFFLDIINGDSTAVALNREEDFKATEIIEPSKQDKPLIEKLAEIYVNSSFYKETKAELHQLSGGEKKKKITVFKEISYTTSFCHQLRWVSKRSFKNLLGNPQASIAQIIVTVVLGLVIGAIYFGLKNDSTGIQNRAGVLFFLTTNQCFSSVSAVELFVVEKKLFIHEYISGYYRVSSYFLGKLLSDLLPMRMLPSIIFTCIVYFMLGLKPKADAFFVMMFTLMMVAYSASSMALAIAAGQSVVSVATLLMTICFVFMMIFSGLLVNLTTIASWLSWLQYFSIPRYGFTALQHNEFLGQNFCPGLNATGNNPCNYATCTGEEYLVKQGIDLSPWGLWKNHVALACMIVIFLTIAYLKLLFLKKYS
Nature of the data set: Flow cytometry, inhibition of mitoxantrone efflux by BCRP. Particulars: compound 20 µM, 5 µM mitoxantrone, transfected cells. In general terms: In flow cytometry, cells or beads pass a laser one at a time.

Sequence of MRP2 (Q92887 whole entry): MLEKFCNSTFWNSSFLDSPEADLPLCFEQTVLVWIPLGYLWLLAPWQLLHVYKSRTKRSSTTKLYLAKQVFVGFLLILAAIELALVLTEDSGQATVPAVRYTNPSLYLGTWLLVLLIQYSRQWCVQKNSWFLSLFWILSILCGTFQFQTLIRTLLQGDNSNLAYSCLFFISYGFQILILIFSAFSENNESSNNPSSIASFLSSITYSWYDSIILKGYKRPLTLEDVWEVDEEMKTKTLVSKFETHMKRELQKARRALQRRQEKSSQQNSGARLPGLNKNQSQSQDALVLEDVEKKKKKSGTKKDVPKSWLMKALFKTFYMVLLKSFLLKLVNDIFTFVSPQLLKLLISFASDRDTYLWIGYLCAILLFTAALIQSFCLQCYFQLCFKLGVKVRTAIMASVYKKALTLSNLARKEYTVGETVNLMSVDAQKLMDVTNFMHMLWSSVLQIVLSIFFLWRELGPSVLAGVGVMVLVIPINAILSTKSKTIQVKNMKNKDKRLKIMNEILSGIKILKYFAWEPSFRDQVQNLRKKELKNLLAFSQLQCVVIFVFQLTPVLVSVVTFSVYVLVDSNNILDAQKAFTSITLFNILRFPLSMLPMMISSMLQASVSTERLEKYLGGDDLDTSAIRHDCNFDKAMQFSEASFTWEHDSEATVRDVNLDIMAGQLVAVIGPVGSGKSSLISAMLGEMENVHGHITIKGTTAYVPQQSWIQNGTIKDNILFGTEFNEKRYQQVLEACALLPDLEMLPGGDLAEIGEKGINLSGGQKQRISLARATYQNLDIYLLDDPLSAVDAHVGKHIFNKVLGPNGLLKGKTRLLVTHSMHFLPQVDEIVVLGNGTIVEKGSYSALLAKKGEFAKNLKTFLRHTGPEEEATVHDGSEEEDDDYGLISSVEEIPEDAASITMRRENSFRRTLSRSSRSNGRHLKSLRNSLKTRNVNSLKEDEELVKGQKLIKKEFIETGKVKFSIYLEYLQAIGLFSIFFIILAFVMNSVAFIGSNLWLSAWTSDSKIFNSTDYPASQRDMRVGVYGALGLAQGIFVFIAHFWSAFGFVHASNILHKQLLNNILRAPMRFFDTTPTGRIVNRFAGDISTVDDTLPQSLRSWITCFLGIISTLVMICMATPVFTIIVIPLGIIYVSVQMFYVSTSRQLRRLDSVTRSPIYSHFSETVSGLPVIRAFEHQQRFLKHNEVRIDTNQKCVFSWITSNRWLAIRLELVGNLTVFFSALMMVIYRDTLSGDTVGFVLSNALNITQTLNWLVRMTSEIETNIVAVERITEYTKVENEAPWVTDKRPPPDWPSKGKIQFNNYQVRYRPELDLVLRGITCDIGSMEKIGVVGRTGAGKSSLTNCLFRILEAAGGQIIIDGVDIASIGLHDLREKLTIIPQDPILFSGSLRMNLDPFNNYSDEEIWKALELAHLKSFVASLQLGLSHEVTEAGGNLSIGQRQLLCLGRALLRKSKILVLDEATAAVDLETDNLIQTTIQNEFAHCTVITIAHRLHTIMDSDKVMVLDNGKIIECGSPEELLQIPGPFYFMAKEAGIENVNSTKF
Sequence of MRP1 (P33527 whole entry): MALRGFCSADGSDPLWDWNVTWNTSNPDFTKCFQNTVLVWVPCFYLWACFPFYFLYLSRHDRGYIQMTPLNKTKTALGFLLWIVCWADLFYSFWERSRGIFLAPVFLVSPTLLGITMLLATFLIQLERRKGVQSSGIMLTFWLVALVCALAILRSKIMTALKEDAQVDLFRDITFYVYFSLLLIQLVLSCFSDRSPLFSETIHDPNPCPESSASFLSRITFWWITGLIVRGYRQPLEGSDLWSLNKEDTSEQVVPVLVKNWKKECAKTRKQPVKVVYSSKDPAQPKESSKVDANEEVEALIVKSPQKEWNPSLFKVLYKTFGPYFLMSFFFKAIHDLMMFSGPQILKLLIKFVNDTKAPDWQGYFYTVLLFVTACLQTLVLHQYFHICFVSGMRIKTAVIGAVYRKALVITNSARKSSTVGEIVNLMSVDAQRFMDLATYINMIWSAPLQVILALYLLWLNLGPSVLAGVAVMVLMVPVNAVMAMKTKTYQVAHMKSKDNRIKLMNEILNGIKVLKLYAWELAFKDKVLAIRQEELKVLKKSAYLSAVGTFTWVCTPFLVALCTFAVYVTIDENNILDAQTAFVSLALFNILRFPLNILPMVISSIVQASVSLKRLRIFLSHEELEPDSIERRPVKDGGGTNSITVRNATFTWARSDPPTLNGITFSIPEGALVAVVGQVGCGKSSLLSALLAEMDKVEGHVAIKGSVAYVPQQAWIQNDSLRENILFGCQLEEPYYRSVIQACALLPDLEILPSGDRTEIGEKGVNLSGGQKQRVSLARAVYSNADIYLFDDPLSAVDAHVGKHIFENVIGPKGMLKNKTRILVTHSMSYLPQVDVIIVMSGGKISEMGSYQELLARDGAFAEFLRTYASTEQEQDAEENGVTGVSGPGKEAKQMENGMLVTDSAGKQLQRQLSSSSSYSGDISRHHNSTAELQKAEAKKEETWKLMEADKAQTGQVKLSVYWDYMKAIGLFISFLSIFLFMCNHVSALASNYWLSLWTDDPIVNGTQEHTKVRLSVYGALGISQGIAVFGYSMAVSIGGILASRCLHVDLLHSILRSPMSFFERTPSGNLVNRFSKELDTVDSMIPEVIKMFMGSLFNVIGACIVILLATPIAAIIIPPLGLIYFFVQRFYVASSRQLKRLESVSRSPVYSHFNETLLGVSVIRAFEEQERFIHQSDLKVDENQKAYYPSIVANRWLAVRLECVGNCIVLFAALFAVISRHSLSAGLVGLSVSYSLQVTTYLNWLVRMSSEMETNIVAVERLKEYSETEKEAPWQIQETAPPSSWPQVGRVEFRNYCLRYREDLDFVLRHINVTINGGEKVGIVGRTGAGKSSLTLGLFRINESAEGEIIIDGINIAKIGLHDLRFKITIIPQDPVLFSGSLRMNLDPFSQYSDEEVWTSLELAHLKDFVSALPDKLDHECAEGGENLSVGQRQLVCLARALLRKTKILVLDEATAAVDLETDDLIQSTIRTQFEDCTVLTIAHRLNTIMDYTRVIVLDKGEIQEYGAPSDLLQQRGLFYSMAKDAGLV

As to `N.N.[Cl][Pt][Cl]` [Cisplatin, reference compound], the results for the IC50 in [1] and in [2] were 38 ± 1.41 µM and 122 ± 25 µM, respectively.

With `O=S(=O)([O-])C(F)(F)F.OCc1ccnc(-c2cc(CO)ccn2)c1.[Ru+2].c1cc[cH-]c1.c1ccc(P(c2ccccc2)c2ccccc2)cc1` [Ru1, [Ru(η^5-Cp)(PPh3)(2,2’-bipyridine-4,4’-dimethanol)][CF3SO3]], in data set [1] (MCF7 cancer cell line), the “fold more cytotoxic than Ru2” value is on record as ~ 7 fold. Moreover, the IC50 in [1] was 4.61 ± 0.96 µM; in [2], 13.9 ± 2.8 µM; in data set [3], 28 µM; in data set [6] (read-out: Half inhibitory growth concentration, IG50, P-gp, NIH3T3 overexpressing P-gp, 48 h incubation at 37 °C, MTT), ~70 µM. Also, in data set [4], the “Inhibition of MRP1 substrate efflux” value is given as “did not display any inhibition property”. Further, in [5], the “Inhibition of MRP2 substrate efflux” value was “did not display any inhibition property”. The “IG50 times higher than for non-transfected cells, P-gp” value in data set [6] (NIH3T3/P-gp vs NIH3T3) is given as 2.4 times. In data set [7], the “IG50 times higher than for non-transfected cells, MRP1” value amounted to 2 times. The “IG50 times higher than for non-transfected cells, BCRP” value in data set [8] stood at 2.8 times. In addition, in [9], the “Inhibition of BCRP (ABCG2) substrate efflux” value is given as “did not display any inhibition property”.
